In publication PMC10671431, “New Derivatives of N-Hydroxybutanamide: Preparation, MMP Inhibition, Cytotoxicity, and Antitumor Activity” (International Journal of Molecular Sciences, 2023):
Entries after “also recorded” stand apart in the source; their conditions may differ.

Tests used:
[1] = test system: U-251 MG; experiment: Cytotoxicity, MTT test; assay type: cell-based; details: Homo sapiens, 72 h of exposure
Description: (§1) Cell culture. A-172 (human glioblastoma cells), HepG2 (human hepatocellular carcinoma cells), M-HeLa (human cervical adenocarcinoma cells, M subclone), Vero (African green monkey kidney epithelial cells), and FetMSC (human embryonic mesenchymal stem cells) were purchased from the Russian Collection of Cell Cultures of Vertebrates (Institute of Cytology RAS, St. Petersburg, Russia). The U-251 MG cell line (human glioblastoma-astrocytoma) was purchased from the European Collection of Authenticated Cell Cultures (Salisbury, UK). All cells were grown at 37 °C in an atmosphere of 5% CO2. A-172 and Vero cells were cultured in DMEM medium (PanEco, Moscow, Russia). HepG2, HeLa, and U-251 MG cells were cultured in EMEM medium (PanEco). FetMSC cells were cultured in F12/DMEM medium (PanEco). All incubation media were supplemented with 10% fetal calf serum (BioWest, Nuaillé, France), 50 U/mL penicillin, and […] streptomycin (PanEco). Additionally, media for HeLa, HepG2, and U-251 MG cells were supplemented with 2 mM glutamine (PanEco) and 1% essential amino acids (PanEco), media for A-172 and Vero cells were supplemented with 4 mM glutamine, and the medium for FetMSC cells was supplemented with 3 mM glutamine. The medium for U-251 MG cells was additionally supplemented with 1 mM sodium pyruvate (PanEco).
(§2) Cytotoxicity studies. The cytotoxicity of the compounds was assessed using the MTT test. Cells were seeded into 96-well plates at varying concentrations of 5 × 10^4 cells/mL (A-172, Vero and HeLa), 7 × 10^4 cells/mL (HepG2 and U-251 MG), and 10 × 10^4 cells/mL (FetMSC). The studied compounds were added to the incubation medium 24 h after seeding at concentrations ranging from 7.8 μM to 500 μM. All compounds were dissolved in DMSO and diluted with the incubation medium to their final concentrations just before use. The incubation medium in wells was aspirated and replaced with medium containing the studied compounds. The final concentration of DMSO in all samples was 0.1%. Control samples were treated with 0.1% DMSO. After 72 h of exposure, 3-(4,5-dimethylthiazol-2-yl)-2,5-diphenyl-2H-tetrazolium bromide (MTT) (Dia-M, Moscow, Russia) was added to the incubation medium at a concentration of 0.5 mg/mL. The resulting MTT-formazan crystals were dissolved in DMSO. The optical density was measured at 570 nm with a background wavelength of 620 nm using a Spark 10M plate reader. IC50 values were determined using a median effect analysis from the dose–effect relationships.

[2] = test system: A-172; experiment: Cytotoxicity, MTT test; assay type: cell-based, human; details: Homo sapiens, A 172, 72 h of exposure
Description: as §1, §2

[3] = test system: FetMSC; experiment: Cytotoxicity, MTT test; assay type: cell-based, human
Description: as §1, §2

[4] = test system: HeLa; experiment: Cytotoxicity, MTT test; assay type: cell-based, human; details: Homo sapiens, HeLa, 72 h of exposure
Description: as §1, §2

[5] = test system: HepG2; experiment: Cytotoxicity, MTT test; assay type: cell-based, human; details: Homo sapiens, HepG2, 72 h of exposure
Description: as §1, §2

[6] = test system: Vero; experiment: Cytotoxicity, MTT test; assay type: cell-based, African green monkey; details: Chlorocebus sabaeus, Vero, 72 h of exposure
Description: as §1, §2

[7] = Cytotoxicity, MTT test, statements on all cell lines studied; assay type: cell-based; details: human, African green monkey, 72 h of exposure, summary over cell lines, read-out: cytotoxicity IC50, cells in general
Description: as §1, §2

[8] = test system: BDF1 mice; experiment: Acute toxicity in vivo
Description: Acute toxicity. Experiments involving animals were conducted at the Unique Scientific Unit “Nursery and Vivarium of the FRC PCP MC RAS” in accordance with the rules established by the Commission on Bioethics of the FRC PCP MC RAS (protocol No. 7/22 dated 20 June 2022) and the European Convention for the Protection of Vertebrate Animals for experimental and scientific purposes. Clinically healthy BDF1 hybrid males weighing 20–22 g were utilized. The mice were housed in a conventional vivarium with a 12 h light regime and provided with free access to water and food. Each experimental group consisted of six animals. Compound 4 was dissolved in DMSO and then diluted with 0.9% NaCl to reduce the DMSO concentration to 10%. The solution was administered intraperitoneally at single doses ranging from 200 mg/kg to 1000 mg/kg. The control group received 10% DMSO in 0.9% NaCl intraperitoneally. The animals were monitored daily for 14 days, with attention given to their overall condition, activity, and appetite. At the end of the experiment, all animals were euthanized by inhalation of ether, followed by a pathoanatomical autopsy.

[9] = test system: B16 melanoma; experiment: Antitumor activity in vivo, tumor growth; set-up: species or system mouse; details: BDF1 mice, i.p., CP 100 mg/kg days 2, 7, cPt 4 mg/kg days 2–9, 4 300 mg/kg days 2–9
Description: Antitumor activity in vivo. The B16 mouse melanoma was used as a tumor model. The B16 melanoma tumor strain was induced in male BDF1 mice by subcutaneous inoculation of 0.2–0.5 mL of a suspension of tumor tissue in medium 199 at intervals of 12–16 days. For the experiments, BDF1 mice were inoculated with 0.3 mL of a suspension of tumor tissue diluted in a 0.9% NaCl solution at a ratio of 1:5 subcutaneously on the right side.
Compound 4 was dissolved in a 0.9% NaCl solution with 1% DMSO. […] Control animals were injected intraperitoneally with 1% DMSO in saline (0.9% NaCl) in the same volumes as the test compounds.
Tumor growth was monitored on days 0, 6, 8, 10, 13, 15, 17, and 20 by measuring the tumor size with a digital caliper. The mean tumor diameter was calculated using the formula:D = 3√a × b × c,(2) where a, b, and c are mutually perpendicular tumor diameters.

O=C(CCC(=O)Nc1ccc(I)cc1)NO [Compound 4, N^1-hydroxy-N^4-(4-iodophenyl)butanediamide]
IC50 [1]: 401 ± 21.1 µM | IC50 [2]: 418 ± 17.4 µM | IC50 ([3]; Homo sapiens, 72 h of exposure, MTT): > 500 µM | toxicity to FetMSC cells ([3]; only at the highest concentration): some toxicity | IC50 [4]: 297 ± 15.7 µM | IC50 [5]: 488 ± 23.9 µM | IC50 [6]: > 500 µM | IC50 at 72 h [7]: > 100 µM | toxicity classification ([8]; intraperitoneally, doses up to 1000 mg/kg, classification of [48]): slightly toxic | body weight change ([8]; single i.p. dose 300 mg/kg or lower, 300 mg/kg): stable increase in body weight; also recorded: did not impact weight gain | body weight change ([8]; single i.p. dose 400 mg/kg): slower weight gain | body weight change ([8]; single i.p. dose 1000 mg/kg, within 7 days, partial recovery on day 14): slight decrease in body weight | body weight change ([8]; single i.p. doses 600 mg/kg and 800 mg/kg, entire observation period): No significant changes in body weight | Tumor Growth Inhibition, % Day 10 [9]: 34.5% | Tumor Growth Inhibition, % Day 13 [9]: 61.5% | Tumor Growth Inhibition, % Day 15 [9]: 50.4% | Tumor Growth Inhibition, % Day 17 [9]: 44.6% | Tumor Growth Inhibition, % Day 20 [9]: 42.3%
